Data published in patent US7056910B2, “1,4,5.6-tetrahydroimidazo[4,5-d]diazepine derivatives or salts thereof” (Astellas Pharma Inc., priority 2000, dated 2006).
Where a name gives a salt, the structure may show the parent alone.

Columns and labels:
[1] = molecular target: T1, arginine vasopressin V1A receptor (Rattus norvegicus, UniProt P30560); assay: V1A receptor binding assay ([3H]-vasopressin, rat hepatic membrane specimen); details: [3H]-vasopressin 0.5 nM, 25° C., 60 minutes, read-out: Binding activity against arginine vasopressin V1A receptor (pki) (converted)
T1 construct: A rat hepatic membrane specimen was prepared; from tissue; host or cells: rat liver (hepatic membrane specimen)
T1 sequence (P30560 whole entry): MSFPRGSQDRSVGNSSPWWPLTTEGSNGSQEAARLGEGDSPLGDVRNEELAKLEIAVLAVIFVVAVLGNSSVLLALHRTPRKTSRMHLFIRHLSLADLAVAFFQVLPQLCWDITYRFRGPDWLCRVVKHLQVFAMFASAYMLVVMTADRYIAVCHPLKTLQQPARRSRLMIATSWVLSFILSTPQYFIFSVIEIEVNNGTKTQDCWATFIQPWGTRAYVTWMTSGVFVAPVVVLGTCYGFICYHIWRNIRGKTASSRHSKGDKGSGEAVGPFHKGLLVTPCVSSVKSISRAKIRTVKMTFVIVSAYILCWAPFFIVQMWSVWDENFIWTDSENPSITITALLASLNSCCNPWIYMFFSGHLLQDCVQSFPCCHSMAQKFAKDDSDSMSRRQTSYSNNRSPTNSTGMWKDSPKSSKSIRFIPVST
Protocol: (1) V1A Receptor Binding Assay:
A rat hepatic membrane specimen was prepared according to the method of Nakamura, et al. (Journal of Biological Chemistry, Vol. 258, No. 15, pp. 9283–9289, 1983). The hepatic membrane specimen (30 μg) was incubated at 25° C. for 60 minutes in a total amount of 250 μL of a 50 mM TRIS-HCl buffer solution (pH: 7.4) containing 10 mM magnesium chloride and 0.1% bovine serum albumin (BSA), together with [^3H]-Arg-vasopressin (hereinafter simply referred to as “[^3H]-vasopressin”) (0.5 nM, specific activity: 75 Ci/mmol) and a test compound (from 10^−10 to 10^−6 M). Thereafter, liberated [^3H]-vasopressin and receptor-binding [^3H]-vasopressin were separated from each other by using a cell harvester, and the receptor-binding [^3H]-vasopressin was adsorbed on a UniFilter plate, GF/B glass filter. After thoroughly drying, the receptor-binding [^3H]-vasopressin was mixed with a microplate scintillation cocktail, the amount of the receptor-binding [^3H]-vasopressin was measured by using TopCount, and an inhibition rate was calculated according to the following equation. Inhibition rate (%)=[100−(C1−B1)]/(C0−B1)×100 C1: An amount of [^3H]-vasopressin binding to the membrane specimen when treating the receptor membrane specimen in the co-presence of the test compound having a known concentration and [^3H]-vasopressin C0: An amount of [^3H]-vasopressin binding to the membrane specimen when treating the receptor membrane specimen in the presence of [^3H]-vasopressin and in the absence of the test compound B1: An amount of [^3H]-vasopressin binding to the membrane specimen when treating the receptor membrane specimen in the co-presence of [^3H]-vasopressin and an excessive amount of vasopressin (10^−6 M)
According to the foregoing equation, a concentration of the test compound at the inhibition rate of 50% (IC50 value) was calculated, from which was then calculated an affinity of the test compound with the receptor, i.e., a dissociation constant (Ki), according to the following equation. Ki=IC50/(1+[L]/Kd) [L]: A concentration of [^3H]-vasopressin Kd: A dissociation constant of [^3H]-vasopressin against the receptor as determined by the saturation binding assay
A logarithm of the Ki value as calculated according to the foregoing equation was taken, and its negative value was defined as a pKi value.

[2] = molecular target: drug metabolizing enzyme CYP3A4 (Homo sapiens, UniProt P08684); assay: Cytochrome P450 (3A4) inhibition assay (BFC substrate, fluorescence); format: in vitro ADME; details: BFC 5×10^−5 M substrate, 37° C., 30 minutes; read-out: Inhibition activity against drug metabolizing enzyme CYP3A4 (IC50/μM)
Chain of drug metabolizing enzyme CYP3A4 (P08684 whole entry): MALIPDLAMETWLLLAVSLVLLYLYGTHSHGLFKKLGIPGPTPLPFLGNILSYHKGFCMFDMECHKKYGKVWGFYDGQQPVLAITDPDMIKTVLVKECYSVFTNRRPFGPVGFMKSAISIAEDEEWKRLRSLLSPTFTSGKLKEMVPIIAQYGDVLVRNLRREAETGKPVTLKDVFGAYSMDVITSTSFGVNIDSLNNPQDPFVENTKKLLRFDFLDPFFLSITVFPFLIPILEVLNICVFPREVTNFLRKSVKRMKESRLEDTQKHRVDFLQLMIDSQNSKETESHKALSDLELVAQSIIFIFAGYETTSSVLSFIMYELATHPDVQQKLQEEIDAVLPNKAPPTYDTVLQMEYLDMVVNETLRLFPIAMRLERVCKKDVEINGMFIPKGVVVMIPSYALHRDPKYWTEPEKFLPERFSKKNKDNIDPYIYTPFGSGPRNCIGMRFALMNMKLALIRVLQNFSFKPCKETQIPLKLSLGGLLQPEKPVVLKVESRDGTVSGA
Protocol: (3) Cytochrome P450 (3A4) Inhibition Assay:
An assay was carried out according to the method of Crespi, et al. (Analytical Biochemistry, 248, 188–190, 1997). Using a 96-well plate, BFC (5×10^−5 M) as a substrate, a test compound (from 9.1×10^−8 to 2×10^−5 M), and an enzyme (10^−8 M) were incubated at 37° C. for 30 minutes in a total amount of 100 μL of a 20 mM phosphoric acid buffer solution (pH: 7.4) containing 1.3 mM NADP+, 3.3 mM glucose-6-pharpahte, 3.3 mM magnesium chloride, and 0.4 Units/mL glucose-6-phosphate dehydrogenase. Thereafter, a 100 mM TRIS buffer solution containing 80% acetonitrile was added to stop the reaction, and a fluorescent intensity (excitation wavelength: 409 nm, fluorescent wavelength: 530 nm) was measured by a fluorescent plate reader. An inhibition rate was calculated according to the following equation, and a concentration of the test compound at the inhibition rate of 50% (IC50 value) was determined. Inhibition rate (%)=[100−(C1−B1)]/(C0−B1)×100 C1: A fluorescent intensity in the presence of the test compound having a known concentration, enzyme and the substrate C0: A fluorescent intensity in the presence of enzyme and the substrate and in the absence of the test compound B1: A fluorescent intensity of the blank well

[3] = molecular target: T2, arginine vasopressin V2 receptor (Rattus norvegicus, UniProt Q00788); assay: V2 receptor binding assay ([3H]-vasopressin, rat renal medullary membrane specimen); details: [3H]-vasopressin 0.5 nM, read-out: Binding activity against arginine vasopressin V2 receptor (pKi) (converted)
T2 construct: A rat renal medullary membrane specimen was prepared; from tissue; host or cells: rat renal medulla (membrane specimen)
T2 sequence (Q00788 whole entry): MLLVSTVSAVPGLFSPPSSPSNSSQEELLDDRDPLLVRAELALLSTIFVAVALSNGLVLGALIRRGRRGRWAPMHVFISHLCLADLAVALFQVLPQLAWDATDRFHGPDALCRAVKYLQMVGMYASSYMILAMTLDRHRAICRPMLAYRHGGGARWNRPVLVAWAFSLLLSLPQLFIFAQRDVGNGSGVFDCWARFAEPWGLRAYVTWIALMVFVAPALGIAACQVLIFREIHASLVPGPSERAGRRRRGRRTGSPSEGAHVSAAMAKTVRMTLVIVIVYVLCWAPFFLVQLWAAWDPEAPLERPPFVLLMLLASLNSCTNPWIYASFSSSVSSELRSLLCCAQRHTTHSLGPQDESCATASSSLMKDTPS
Protocol: (2) V2 Receptor Binding Assay:
A rat renal medullary membrane specimen was prepared according to the method of Cambell, et al. (Journal of Biological Chemistry, Vol. 247, No. 19, pp. 6167–6175, 1972). The rat renal medullary membrane specimen (200 μg) was treated together with [^3H]-vasopressin (0.5 nM, specific activity: 75 Ci/mmol) and a test compound (from 10^−10 to 10^−6 M) in the same manner as in the foregoing V1A receptor binding assay, and the same measurement was carried out to determine a pKi value.

## O=C(Nc1ccc(C(=O)N2CCc3nc(-c4ccccn4)[nH]c3-c3ccccc32)nc1)c1ccccc1-c1ccccc1 [Example 11, N-{6-[2-(2-pyridyl)-1,4,5,6-tetrahydroimidazo[4,5-d][1]benzazepine-6-carbonyl]-3-pyridyl}biphenyl-2-carboxamide]
[1]
  Ki: 1.95 nM
[2]
  IC50: 2 µM
[3]
  Ki: 12.3 nM

## O=C(Nc1ccc(C(=O)N2CCc3nc(-c4ccccn4)[nH]c3-c3ccccc32)cc1)c1ccccc1-c1ccccc1 [Example 1, N-{4-[2-(2-Pyridyl)-1,4,5,6-tetrahydroimidazo[4,5-d][1]benzazepine-6-carbonyl]phenyl}biphenyl-2-carboxamide hydrochloride]
[1]
  Ki: 2.82 nM
[2]
  IC50: 7.82 µM
[3]
  Ki: 6.03 nM

## O=C(Nc1ccc(C(=O)N2CCc3nc(C4CC4)[nH]c3-c3ccccc32)cc1)c1ccccc1-c1ccccc1 [Control compound 2, N-[4(2-Cyclopropyl-1,4,5,6-tetrahydroimidazo[4,5-d] [1]benzazepine-6-carbonyl)phenyl]biphenyl-2-carboxamide hydrochloride, reference compound]
[1]
  Ki: 1.23 nM
[2]
  IC50: 0.43 µM
[3]
  Ki: 1.05 nM

## O=C(Nc1ccc(C(=O)N2CCc3nc(-c4ccccn4)[nH]c3-c3ccccc32)cc1O)c1ccccc1-c1ccccc1 [Example 12, N-{2-Hydroxy-4-[2-(2-pyridyl)-1,4,5,6-tetrahydroimidazo[4,5-d][1]-benzazepine-6-carbonyl]phenyl}biphenyl-2-carboxamide hydrochloride]
[1]
  Ki: 7.59 nM
[2]
  IC50: 5.9 µM
[3]
  Ki: 28.8 nM

## O=C(Nc1ccc(C(=O)N2CCc3nc(-c4ccccn4)[nH]c3-c3ccccc32)cc1)c1ccccc1-c1ccccc1 [Example 6, N-{4-[2-(2-Pyridyl)-1,4,5,6-tetrahydroimidazo[4,5-d][1]benzazepine-6-carbonyl]phenyl}biphenyl-2-carboxamide]
other
  melting point: 240 to 242 °C

## O=C(Nc1ccc(C(=O)N2CCc3nc(-c4ccccn4)[nH]c3-c3ccccc32)cc1)c1ccccc1-c1ccccc1F [Example 9, 2′-fluoro-N-{4-[2-(2-pyridyl)-1,4,5,6-tetrahydroimidazo[4,5-d][1]benzazepine-6-carbonyl]phenyl}biphenyl-2-carboxamide]
[1]
  Ki: 3.8 nM
[2]
  IC50: 2.4 µM
[3]
  Ki: 10.5 nM

## O=C(Nc1ccc(C(=O)N2CCc3nc(Cc4ccccc4)[nH]c3-c3ccccc32)cc1)c1ccccc1-c1ccccc1 [Control compound 1, N-[4-(2-Benzyl-1,4,5,6-tetrahydroimidazo[4 5-d] [1]benzazepine-6-carbonyl)phenyl]biphenyl-2-carboxamide hydrochloride, reference compound]
[1]
  Ki: 7.76 nM
[2]
  IC50: 0.21 µM
[3]
  Ki: 8.51 nM
